In PMC5708365, “Histone lysine methyltransferase structure activity relationships that allow for segregation of G9a inhibition and anti-Plasmodium activity” (MedChemComm, 2017):
Like-named read-outs stand apart in the source and are kept apart here.

Experiments:
[1] = test system: P. falciparum 3D7 strain parasites; experiment: microbe, parasite or virus in culture; details: Plasmodium falciparum, 3D7, 72 h, read-out: Pf3D7 IC50
[2] = biological target: T1, G9a (Homo sapiens, UniProt Q96KQ7); details: for IC50: read-out: G9a IC50
T1 sequence (Q96KQ7 1-1210): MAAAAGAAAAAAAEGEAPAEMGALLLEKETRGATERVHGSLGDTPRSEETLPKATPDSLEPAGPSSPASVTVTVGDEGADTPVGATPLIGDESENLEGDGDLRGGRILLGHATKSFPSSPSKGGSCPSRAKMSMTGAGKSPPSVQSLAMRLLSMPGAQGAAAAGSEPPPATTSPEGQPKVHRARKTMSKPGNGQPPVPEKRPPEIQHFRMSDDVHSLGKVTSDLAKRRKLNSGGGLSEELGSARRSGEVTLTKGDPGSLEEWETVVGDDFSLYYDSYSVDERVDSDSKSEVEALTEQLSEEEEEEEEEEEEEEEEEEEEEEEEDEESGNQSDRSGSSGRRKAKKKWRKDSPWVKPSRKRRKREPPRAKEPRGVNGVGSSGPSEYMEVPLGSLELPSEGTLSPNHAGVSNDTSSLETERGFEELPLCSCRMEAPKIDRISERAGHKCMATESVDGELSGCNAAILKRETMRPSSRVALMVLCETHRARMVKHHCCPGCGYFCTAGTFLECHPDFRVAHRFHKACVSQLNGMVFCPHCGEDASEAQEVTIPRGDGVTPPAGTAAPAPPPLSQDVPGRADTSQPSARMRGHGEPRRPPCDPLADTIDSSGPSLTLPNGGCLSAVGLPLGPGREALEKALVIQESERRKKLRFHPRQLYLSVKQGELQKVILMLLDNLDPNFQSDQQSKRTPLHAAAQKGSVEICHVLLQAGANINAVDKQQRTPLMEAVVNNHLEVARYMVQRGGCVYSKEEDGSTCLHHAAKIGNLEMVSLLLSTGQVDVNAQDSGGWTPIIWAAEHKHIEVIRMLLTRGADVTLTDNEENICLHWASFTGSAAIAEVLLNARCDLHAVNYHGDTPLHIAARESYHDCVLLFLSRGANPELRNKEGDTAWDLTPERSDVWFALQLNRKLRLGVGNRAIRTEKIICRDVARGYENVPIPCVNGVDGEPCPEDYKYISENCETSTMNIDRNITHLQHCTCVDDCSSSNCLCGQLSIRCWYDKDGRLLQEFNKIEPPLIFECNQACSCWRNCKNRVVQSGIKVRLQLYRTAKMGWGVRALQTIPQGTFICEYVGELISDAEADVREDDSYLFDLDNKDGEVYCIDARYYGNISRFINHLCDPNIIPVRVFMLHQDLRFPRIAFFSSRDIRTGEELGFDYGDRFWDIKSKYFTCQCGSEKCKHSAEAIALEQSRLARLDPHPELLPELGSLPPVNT

[3] = test system: P. falciparum 3D7 strain parasites; details: parasite-killing activity reported earlier, cited from earlier work; for IC50: read-out: Pf3D7 IC50
[4] = test system: HepG2 cells; details: read-out: HepG2 IC50; Tables ST1 and ST2
[5] = test system: H3K4me3 levels in P. falciparum 3D7 parasites; experiment: Parasite histone methylation analysis (Western blot), H3K4me3; assay type: cell-based; details: 12 h treatment, relative to DMSO control
Description: (§1) Parasites were treated with drugs for 12 h. After treatment, infected red blood cells were collected and lysed with PBS containing 0.15% saponin. Free parasites were lysed by bath sonication in 1% SDS-PBS and analysed by Western Blot. Blots were probed with primary antibodies specific for H3K4me3 (Abcam ab1012 1 : 1000), H3 core (Abcam ab1791, 1 : 3000) and H3K9me3 (Abcam ab8898, 1 : 1000) diluted in TBS-T (50 mM Tris pH 7.5, 150 mM NaCl, 0.05% Tween-20, 5% BSA), followed by anti-mouse HRP (GE NA931V) or anti-rabbit HRP (GE NA934V) secondary antibodies.

[6] = test system: PfSET7; experiment: Initial activity assays using PfSET7; assay type: biochemical, P. falciparum; details: data not shown
[7] = test system: H3K9me3 levels in P. falciparum 3D7 parasites; experiment: Parasite histone methylation analysis (Western blot), H3K9me3; assay type: cell-based; details: 12 h treatment, relative to DMSO control
Description: as §1

[8] = test system: synchronised P. falciparum parasites; experiment: In vitro stage-dependent antimalarial activity; assay type: cell-based; details: 10× IC50, three distinct 12 hour periods of the intra-erythrocytic life cycle; re-invasion and out-growth
Description: Stage-specific compound treatment effects were elucidated using highly synchronized parasites in 48-well plates with a starting parasitemia of 0.75% and a hematocrit of 2%. […] After treatment, parasites were washed with warm RPMI 1640 medium and placed back into culture without test compound for analysis of re-invasion after completion of the cell cycle in which treatment occurred. Washed parasites after treatment were also diluted 1 : 16 and allowed to grow without compound for an additional two cell cycles (4 days). Parasitemia after re-invasion or after 4 day growth was quantified on infected cells fixed in 0.025% glutaraldehyde and stained with 2× SYBR Green I (Lonza) in PBS.

[9] = test system: P. falciparum 3D7 strain parasites; details: P. falciparum 3D7, three-day SYBR Green I assay
[10] = test system: HepG2 cells; experiment: cells; details: Homo sapiens, HepG2, read-out: anti-HepG2 IC50
[11] = test system: G9a activity in cells (H3K9me2 levels); details: reduction of H3K9me2 levels, ICW; cited from earlier work
[12] = biological target: T1, G9a; details: read-out: G9a IC50; CLOT assay; cited from earlier work
[13] = SPA, 5 nM G9a, H3 1-25 peptide 0.8 μM, 3H-SAM 8 μM

## CCN(CC)CCCC(C)Nc1ccnc2cc(Cl)ccc12 (stereo not drawn) [Chloroquine]
[1]
  IC50: 8 nM

## COc1cc2nc(N3CCOCC3)nc(NC3CCN(Cc4ccccc4)C3)c2cc1OC (stereo not drawn) [S15]
[2]; ratio of G9a IC50 to Pf3D7 IC50
  G9a/Pf3D7: > 6.6
[2]; [13]
  IC50: > 1000 nM
[3]; Tables ST1-ST4, ref 1 (supplement)
  IC50: 152 nM
[4]
  IC50: 15300 nM

## COc1cc2nc(N3CCCN(C)CC3)nc(NC3CCN(Cc4ccccc4)CC3)c2cc1OC [compound 1, reference compound]
[5]
  H3K4me3 levels: decrease
[6]
  PfSET7 as target: PfSET7 not to be the target
[7]
  H3K9me3 levels: decrease
[8]
  stage-dependent killing phenotype: erythrocytic stage-independent killing phenotype

## COc1cc2nc(NCCCN(C)C)nc(NC3CCN(Cc4ccccc4)CC3)c2cc1OC [compound 17]
[2]; [13]
  G9a IC50: good G9a inhibition
  IC50: 123 nM
[9]
  Pf3D7 IC50: poor potency against Plasmodium

## COc1cc2nc(N3CCN(C)CC3)nc(NC3CCN(C)CC3)c2cc1OC [compound 39]
[3]; P. falciparum 3D7
  Pf3D7 IC50: low Pf3D7 activity
  IC50: > 300 nM

## COc1cc2nc(N3CCCCC3)nc(NC3CCN(C)CC3)c2cc1OC [compound 40]
[2]; [13]
  IC50: 591 nM
[10]
  IC50: > 10000 nM

## COc1cc2c(NC3CCN(C)CC3)nc(NCCCN(C)C)nc2cc1OCc1ccccc1 [compound 63]
[2]; [13]
  IC50: > 1000 nM
[9]
  Pf3D7 IC50: lost activity against Plasmodium

## COc1cc2c(NC3CCN(C)CC3)nc(N3CCCN(C)CC3)nc2cc1OCCCN1CCCCC1 [compound 64]
[11]
  G9a activity in cells: moderate G9a activity in cells
[3]; P. falciparum 3D7
  IC50: > 2000 nM

## COc1cc2c(NC3CCN(C)CC3)nc(N3CCCN(C)CC3)nc2cc1OCCCN1CCCC1 [compound 65]
[11]
  G9a activity in cells: moderate G9a activity in cells
[3]; P. falciparum 3D7
  IC50: > 2000 nM

## COc1cc2c(NC3CCN(C)CC3)nc(N3CCCN(C)CC3)nc2cc1OCCCN(C)C [compound 66, reference compound]
[3]; P. falciparum 3D7
  IC50: > 2000 nM

## COc1cc2c(NC3CCN(C)CC3)nc(N3CCCN(C)CC3)nc2cc1OCCN(C)C [compound 67]
[3]; P. falciparum 3D7
  IC50: > 2000 nM

## COCCCCOc1cc2nc(N3CCCN(C)CC3)nc(NC3CCN(C)CC3)c2cc1OC [compound 71]
[12]
  IC50: > 10000 nM

## COc1cc2nc(N3CCN(C)CC3)cc(NC3CCN(Cc4ccccc4)CC3)c2cc1OC [compound 89, N-(1-Benzylpiperidin-4-yl)-6,7-dimethoxy-2-(4-methylpiperazin-1-yl)quinolin-4-amine]
[2]; [13]
  IC50: 21 nM
[5]
  H3K4me3 levels: decrease
[7]
  H3K9me3 levels: decrease
[8]
  stage-dependent killing phenotype: erythrocytic stage-independent killing phenotype

## COc1cc2nc(N3CCC(OC)CC3)cc(NC3CCN(Cc4ccccc4)CC3)c2cc1OC [compound 90, N-(1-Benzylpiperidin-4-yl)-6,7-dimethoxy-2-(4-methoxypiperidin-1-yl)quinolin-4-amine]
[2]; [13]
  IC50: 119 nM
[5]
  H3K4me3 levels: decrease
[7]
  H3K9me3 levels: decrease
[8]
  stage-dependent killing phenotype: erythrocytic stage-independent killing phenotype
